Data taken from paper PMC5218480 (PLoS ONE, 2017).

Tested on: MV-4-11 cells
Test: Gene expression microarray analysis (Affymetrix PrimeView) and GSEA
Format: cell-based, human
Design: RFU PODN (11730768_x_at) / Fold change /veh PODN (11730768_x_at) / RFU LINC00158 (11744669_a_at) / Fold change /veh LINC00158 (11744669_a_at) / RFU DUSP10 (11751237_a_at) / Fold change /veh DUSP10 (11751237_a_at) / RFU ID3 (11757404_x_at) / Fold change /veh ID3 (11757404_x_at) / RFU PLEKHG5 (11737974_s_at) / Fold change /veh PLEKHG5 (11737974_s_at) / RFU LRRC4B (11730491_at) / Fold change /veh LRRC4B (11730491_at) / RFU GIMAP4 (11747438_a_at) / Fold change /veh GIMAP4 (11747438_a_at) / RFU KRT8 (11758183_x_at) / Fold change /veh KRT8 (11758183_x_at) / RFU CNN1 (11734310_a_at) / Fold change /veh CNN1 (11734310_a_at) / RFU VPS37D (11726825_at) / Fold change /veh VPS37D (11726825_at) / RFU C10orf10 (11716522_x_at) / Fold change /veh C10orf10 (11716522_x_at) / RFU KIR2DL2 /// KIR2DL4 /// KIR2DL5A /// KIR2DL5B /// KIR2DS1 /// KIR2DS2 /// KIR2DS3 /// KIR2DS4 /// KIR3DL3 /// KIR3DL3 /// KIR3DS1 (11738374_at) / Fold change /veh KIR2DL2 /// KIR2DL4 /// KIR2DL5A /// KIR2DL5B /// KIR2DS1 /// KIR2DS2 /// KIR2DS3 /// KIR2DS4 /// KIR3DL3 /// KIR3DL3 /// KIR3DS1 (11738374_at) / RFU C1QL1 (11718748_at) / Fold change /veh C1QL1 (11718748_at) / RFU TMPRSS4 (11747572_a_at) / Fold change /veh TMPRSS4 (11747572_a_at) / RFU HAMP (11756126_x_at) / Fold change /veh HAMP (11756126_x_at) / RFU RNFT2 (11725882_a_at) / Fold change /veh RNFT2 (11725882_a_at) / RFU NR4A2 (11747474_a_at) / Fold change /veh NR4A2 (11747474_a_at) / RFU ABCC12 (11746883_a_at) / Fold change /veh ABCC12 (11746883_a_at) / RFU TMEM136 (11760407_x_at) / Fold change /veh TMEM136 (11760407_x_at) / RFU CLDN22 /// WWC2 (11732394_at) / Fold change /veh CLDN22 /// WWC2 (11732394_at) / RFU HLA-DPB1 (11760878_x_at) / Fold change /veh HLA-DPB1 (11760878_x_at) / RFU SPINT1 (11716480_a_at) / Fold change /veh SPINT1 (11716480_a_at) / RFU GAP43 (11754022_s_at) / Fold change /veh GAP43 (11754022_s_at) / RFU A4GNT (11735810_at) / Fold change /veh A4GNT (11735810_at) / RFU PRB3 (11715151_x_at) / Fold change /veh PRB3 (11715151_x_at) / RFU TUBB4B (11761932_at) / Fold change /veh TUBB4B (11761932_at) / RFU CAPN14 (11732068_a_at) / Fold change /veh CAPN14 (11732068_a_at) / RFU TMCC2 (11721928_a_at) / Fold change /veh TMCC2 (11721928_a_at) / RFU IRGQ (11745062_a_at) / Fold change /veh IRGQ (11745062_a_at) / RFU FAM174B (11720279_a_at) / Fold change /veh FAM174B (11720279_a_at) / RFU TMPRSS4 (11748680_a_at) / Fold change /veh TMPRSS4 (11748680_a_at) / RFU FAM212B (11763350_a_at) / Fold change /veh FAM212B (11763350_a_at) / RFU PLEKHG5 (11743358_a_at) / Fold change /veh PLEKHG5 (11743358_a_at) / RFU ZSCAN30 (11745921_a_at) / Fold change /veh ZSCAN30 (11745921_a_at) / RFU CMKLR1 (11741424_a_at) / Fold change /veh CMKLR1 (11741424_a_at) / RFU LOC101060620 /// MAPK8IP1 (11723275_at) / Fold change /veh LOC101060620 /// MAPK8IP1 (11723275_at) / RFU SPTSSB (11747773_x_at) / Fold change /veh SPTSSB (11747773_x_at) / RFU PRSS12 (11739890_at) / Fold change /veh PRSS12 (11739890_at) / RFU BIN1 (11741810_x_at) / Fold change /veh BIN1 (11741810_x_at) / RFU WNT11 (11732464_a_at) / Fold change /veh WNT11 (11732464_a_at) / RFU C10orf10 (11716521_a_at) / Fold change /veh C10orf10 (11716521_a_at) / RFU C5orf56 (11738089_at) / Fold change /veh C5orf56 (11738089_at) / RFU CYB561 (11721691_x_at) / Fold change /veh CYB561 (11721691_x_at) / RFU ANKRD19P (11752326_a_at) / Fold change /veh ANKRD19P (11752326_a_at) / RFU OR2T12 /// OR2T33 /// OR2T8 (11738714_s_at) / Fold change /veh OR2T12 /// OR2T33 /// OR2T8 (11738714_s_at) / RFU VCAN (11748164_a_at) / Fold change /veh VCAN (11748164_a_at) / RFU JSRP1 (11732532_at) / Fold change /veh JSRP1 (11732532_at) / RFU KRTAP10-11 (11738290_x_at) / Fold change /veh KRTAP10-11 (11738290_x_at) / RFU MYO3A (11730013_a_at) / Fold change /veh MYO3A (11730013_a_at) / RFU EBF3 (11725865_a_at) / Fold change /veh EBF3 (11725865_a_at) / RFU CAMK2N1 (11719241_x_at) / Fold change /veh CAMK2N1 (11719241_x_at) / RFU C5orf56 (11738088_a_at) / Fold change /veh C5orf56 (11738088_a_at) / RFU OLFML3 (11715873_a_at) / Fold change /veh OLFML3 (11715873_a_at) / RFU LOC100653217 /// NTM (11731650_a_at) / Fold change /veh LOC100653217 /// NTM (11731650_a_at) / RFU MAPK11 (11762145_a_at) / Fold change /veh MAPK11 (11762145_a_at) / RFU FIZ1 (11724087_x_at) / Fold change /veh FIZ1 (11724087_x_at) / RFU OASL (11726364_x_at) / Fold change /veh OASL (11726364_x_at) / RFU SOX15 (11748057_x_at) / Fold change /veh SOX15 (11748057_x_at) / RFU CD79A (11719716_a_at) / Fold change /veh CD79A (11719716_a_at) / RFU HIST1H1D (11736915_at) / Fold change /veh HIST1H1D (11736915_at) / RFU CASKIN2 (11723855_a_at) / Fold change /veh CASKIN2 (11723855_a_at) / RFU LOC730098 (11760151_x_at) / Fold change /veh LOC730098 (11760151_x_at) / RFU OR4N2 (11742367_at) / Fold change /veh OR4N2 (11742367_at) / RFU PRRT2 (11749266_a_at) / Fold change /veh PRRT2 (11749266_a_at) / RFU SNX32 (11753110_a_at) / Fold change /veh SNX32 (11753110_a_at) / RFU CDHR5 (11726645_a_at) / Fold change /veh CDHR5 (11726645_a_at) / RFU RCAN1 (11760418_a_at) / Fold change /veh RCAN1 (11760418_a_at) / RFU FAM167A (11723789_a_at) / Fold change /veh FAM167A (11723789_a_at) / RFU FAM26E (11764081_at) / Fold change /veh FAM26E (11764081_at) / RFU ISYNA1 (11749810_s_at) / Fold change /veh ISYNA1 (11749810_s_at) / RFU ACY1 (11761880_at) / Fold change /veh ACY1 (11761880_at) / RFU 11764098_at / Fold change /veh 11764098_at / RFU SAMD14 (11745864_x_at) / Fold change /veh SAMD14 (11745864_x_at) / RFU NPB (11741838_a_at) / Fold change /veh NPB (11741838_a_at) / RFU TMPRSS6 (11731388_a_at) / Fold change /veh TMPRSS6 (11731388_a_at) / RFU KRTAP10-2 (11738614_at) / Fold change /veh KRTAP10-2 (11738614_at) / RFU ARHGAP8 /// PRR5-ARHGAP8 (11727945_x_at) / Fold change /veh ARHGAP8 /// PRR5-ARHGAP8 (11727945_x_at) / RFU KRTAP5-7 /// NADSYN1 (11734609_at) / Fold change /veh KRTAP5-7 /// NADSYN1 (11734609_at) / RFU RASL12 (11751679_a_at) / Fold change /veh RASL12 (11751679_a_at) / RFU CDKN2B (11736163_a_at) / Fold change /veh CDKN2B (11736163_a_at) / RFU PRF1 (11729649_at) / Fold change /veh PRF1 (11729649_at) / RFU, ZNF638 /// ZNF638-IT1 / Fold change vs veh, ZNF638 /// ZNF638-IT1 / RFU, PANK3 / Fold change vs veh, PANK3 / RFU, SH3YL1 / Fold change vs veh, SH3YL1 / RFU, ZEB2 / Fold change vs veh, ZEB2 / RFU, NRIP1 / Fold change vs veh, NRIP1 / RFU, PTTG1IP / Fold change vs veh, PTTG1IP / RFU, CAPN2 / Fold change vs veh, CAPN2 / RFU, MED14 / Fold change vs veh, MED14 / RFU, SNORA58 / Fold change vs veh, SNORA58 / RFU, C1orf63 / Fold change vs veh, C1orf63 / RFU, LRRFIP1 / Fold change vs veh, LRRFIP1 / RFU, NDUFAF7 / Fold change vs veh, NDUFAF7 / RFU, SLC12A2 / Fold change vs veh, SLC12A2 / RFU, IBTK / Fold change vs veh, IBTK / RFU, ESF1 / Fold change vs veh, ESF1 / Fold change vs veh, TMEM50B / RFU, TAOK1 / Fold change vs veh, TAOK1 / RFU, ACBD3 / Fold change vs veh, ACBD3 / RFU, TMA16 / Fold change vs veh, TMA16 / RFU, RWDD3 / Fold change vs veh, RWDD3 / RFU, BCAT1 / Fold change vs veh, BCAT1 / RFU, EDEM3 / Fold change vs veh, EDEM3 / RFU, TMEM33 / Fold change vs veh, TMEM33 / RFU, WDR75 / Fold change vs veh, WDR75 / RFU, AHCTF1 / Fold change vs veh, AHCTF1 / RFU, TFRC / Fold change vs veh, TFRC / RFU, ZDHHC17 / Fold change vs veh, ZDHHC17 / RFU, NOM1 / Fold change vs veh, NOM1 / RFU, ARL8B / Fold change vs veh, ARL8B / RFU, ZBTB11 / Fold change vs veh, ZBTB11 / RFU, TAMM41 / Fold change vs veh, TAMM41 / RFU, KIAA1704 /// LOC100996395 / Fold change vs veh, KIAA1704 /// LOC100996395 / RFU, ING1 / Fold change vs veh, ING1 / RFU, TRMT61B / Fold change vs veh, TRMT61B / RFU, FUBP3 / Fold change vs veh, FUBP3 / RFU, TP53 / Fold change vs veh, TP53 / RFU, TNKS2 / Fold change vs veh, TNKS2 / RFU, ZFP14 / Fold change vs veh, ZFP14 / RFU, ACTR2 / Fold change vs veh, ACTR2 / RFU, PPP3R1 / Fold change vs veh, PPP3R1 / RFU, PIK3R1 / Fold change vs veh, PIK3R1 / RFU, HNRNPA1 / Fold change vs veh, HNRNPA1 / RFU, RNF170 / Fold change vs veh, RNF170 / RFU, ZNF28 / Fold change vs veh, ZNF28 / RFU, RNGTT / Fold change vs veh, RNGTT / RFU, OGT / Fold change vs veh, OGT / RFU, BRD1 / Fold change vs veh, BRD1 / RFU, MARS / Fold change vs veh, MARS / RFU, ZNF655 / Fold change vs veh, ZNF655 / RFU, FAHD1 / Fold change vs veh, FAHD1 / RFU, BDP1 / Fold change vs veh, BDP1 / RFU, LRRCC1 / Fold change vs veh, LRRCC1 / RFU, ARID1A / Fold change vs veh, ARID1A / RFU, ZNF146 / Fold change vs veh, ZNF146 / RFU, ZNF330 / Fold change vs veh, ZNF330 / RFU, GPN3 / Fold change vs veh, GPN3 / RFU, C9orf123 / Fold change vs veh, C9orf123 / RFU, N4BP2L2 / Fold change vs veh, N4BP2L2 / RFU, ARFIP1 / Fold change vs veh, ARFIP1 / RFU, FAM179B / Fold change vs veh, FAM179B / RFU, BCL10 / Fold change vs veh, BCL10 / RFU, UHRF1BP1L / Fold change vs veh, UHRF1BP1L / RFU, BET1 / Fold change vs veh, BET1 / RFU, CNOT2 / Fold change vs veh, CNOT2 / RFU, ZNF268 / Fold change vs veh, ZNF268 / Fold change vs veh, ZNF507 / RFU, DGCR2 / Fold change vs veh, DGCR2 / RFU, WDSUB1 / Fold change vs veh, WDSUB1 / Fold change vs veh, HSP90B1 /// MIR3652 / RFU, ADSS / Fold change vs veh, ADSS / RFU, GK / Fold change vs veh, GK / RFU, ZNF148 / Fold change vs veh, ZNF148 / RFU, TAF9 / Fold change vs veh, TAF9 / RFU, SLC1A5 / Fold change vs veh, SLC1A5 / RFU, SLMO2 / Fold change vs veh, SLMO2 / RFU, ABCC4 / Fold change vs veh, ABCC4 / RFU, LOC101060439 /// RAP1B / Fold change vs veh, LOC101060439 /// RAP1B / RFU, RFX7 / Fold change vs veh, RFX7 / RFU, GTPBP10 / Fold change vs veh, GTPBP10 / RFU, CNEP1R1 / Fold change vs veh, CNEP1R1 / RFU, BIVM-ERCC5 /// ERCC5 / Fold change vs veh, BIVM-ERCC5 /// ERCC5 / RFU, ILF3 / Fold change vs veh, ILF3 / RFU 11762660_at / Fold change /veh 11762660_at / RFU VCAN (11757783_s_at) / Fold change /veh VCAN (11757783_s_at) / RFU DDX43 (11728927_at) / Fold change /veh DDX43 (11728927_at) / RFU KRT8 (11758188_x_at) / Fold change /veh KRT8 (11758188_x_at) / RFU NKD1 (11759106_at) / Fold change /veh NKD1 (11759106_at) / RFU SRD5A1 (11742802_a_at) / Fold change /veh SRD5A1 (11742802_a_at) / RFU TPSAB1 /// TPSB2 (11721975_s_at) / Fold change /veh TPSAB1 /// TPSB2 (11721975_s_at) / RFU GSTM3 (11746129_a_at) / Fold change /veh GSTM3 (11746129_a_at) / RFU IL23R (11737362_x_at) / Fold change /veh IL23R (11737362_x_at) / RFU TMEM51 (11727254_a_at) / Fold change /veh TMEM51 (11727254_a_at) / RFU PIWIL2 (11732686_x_at) / Fold change /veh PIWIL2 (11732686_x_at) / RFU ORM1 (11744905_x_at) / Fold change /veh ORM1 (11744905_x_at) / RFU CCDC152 (11743942_at) / Fold change /veh CCDC152 (11743942_at) / RFU ECM1 (11717891_a_at) / Fold change /veh ECM1 (11717891_a_at) / RFU IL23R (11748794_a_at) / Fold change /veh IL23R (11748794_a_at) / RFU TNFAIP8L3 (11732012_x_at) / Fold change /veh TNFAIP8L3 (11732012_x_at) / RFU MBOAT4 (11741988_at) / Fold change /veh MBOAT4 (11741988_at) / RFU 11764193_at / Fold change /veh 11764193_at / RFU TMEM53 (11763286_at) / Fold change /veh TMEM53 (11763286_at) / RFU MAGEB2 (11727129_at) / Fold change /veh MAGEB2 (11727129_at) / RFU TMEM200A (11744735_a_at) / Fold change /veh TMEM200A (11744735_a_at) / RFU CCDC152 (11751479_a_at) / Fold change /veh CCDC152 (11751479_a_at) / RFU FAM211A (11726209_a_at) / Fold change /veh FAM211A (11726209_a_at) / RFU RGS16 (11746705_a_at) / Fold change /veh RGS16 (11746705_a_at) / RFU VCAN (11755009_s_at) / Fold change /veh VCAN (11755009_s_at) / RFU RHOB (11743442_s_at) / Fold change /veh RHOB (11743442_s_at) / RFU RGS16 (11720943_a_at) / Fold change /veh RGS16 (11720943_a_at) / RFU RGS16 (11720944_at) / Fold change /veh RGS16 (11720944_at) / RFU, VPS4B / Fold change vs veh, VPS4B / RFU, CREB1 / Fold change vs veh, CREB1 / RFU, DNAJC13 / Fold change vs veh, DNAJC13 / RFU, GNAQ / Fold change vs veh, GNAQ / RFU, CDK5R1 / Fold change vs veh, CDK5R1 / RFU, ZRANB3 / Fold change vs veh, ZRANB3 / RFU, CUL4A / Fold change vs veh, CUL4A / RFU, CCNY / Fold change vs veh, CCNY / RFU, UFL1 / Fold change vs veh, UFL1 / RFU, COG3 / Fold change vs veh, COG3 / RFU, DIAPH2 / Fold change vs veh, DIAPH2 / RFU, SKA2 / Fold change vs veh, SKA2 / RFU, AFF3 / Fold change vs veh, AFF3 / RFU, LMF1 / Fold change vs veh, LMF1 / RFU, IPO11 / Fold change vs veh, IPO11 / RFU, DFFB / Fold change vs veh, DFFB / RFU, FOXP1 / Fold change vs veh, FOXP1 / RFU, CARD8 / Fold change vs veh, CARD8 / RFU, STRN3 / Fold change vs veh, STRN3 / RFU, ADK / Fold change vs veh, ADK / RFU, RASSF2 / Fold change vs veh, RASSF2 / RFU, WIPF1 / Fold change vs veh, WIPF1 / RFU, LARP1B / Fold change vs veh, LARP1B / RFU, RASA1 / Fold change vs veh, RASA1 / RFU, RB1 / Fold change vs veh, RB1 / RFU, PPFIA1 / Fold change vs veh, PPFIA1 / RFU, MAT2A / Fold change vs veh, MAT2A / RFU, CCT5 / Fold change vs veh, CCT5 / RFU, WDR92 / Fold change vs veh, WDR92 / RFU, CUX1 / Fold change vs veh, CUX1 / RFU, TTC7A / Fold change vs veh, TTC7A / RFU, TMEM135 / Fold change vs veh, TMEM135 / RFU, DEPTOR / Fold change vs veh, DEPTOR / RFU, CPM / Fold change vs veh, CPM / RFU, DNAJB6 / Fold change vs veh, DNAJB6 / RFU, CACNA2D3 / Fold change vs veh, CACNA2D3 / RFU, DTX4 / Fold change vs veh, DTX4 / RFU, TFCP2 / Fold change vs veh, TFCP2 / RFU, GMCL1 /// GMCL1P1 / Fold change vs veh, GMCL1 /// GMCL1P1 / RFU, AEBP2 / Fold change vs veh, AEBP2 / RFU, SNHG1 /// SNORD22 /// SNORD25 /// SNORD26 /// SNORD27 /// SNORD28 /// SNORD29 /// SNORD31 / Fold change vs veh, SNHG1 /// SNORD22 /// SNORD25 /// SNORD26 /// SNORD27 /// SNORD28 /// SNORD29 /// SNORD31 / Fold change (Aza/veh), C12orf56 (ProbeSet 11735607_a_at) / Fold change (ACY-1035/veh), C12orf56 (ProbeSet 11735607_a_at) / Fold change (Aza/veh), FGFR1OP (ProbeSet 11751329_s_at) / Fold change (ACY-1035/veh), FGFR1OP (ProbeSet 11751329_s_at) / Fold change (Aza/veh), VPS36 (ProbeSet 11739960_a_at) / Fold change (ACY-1035/veh), VPS36 (ProbeSet 11739960_a_at) / RFU SYPL1 (11715823_x_at) / Fold change /veh SYPL1 (11715823_x_at) / RFU IGFBP7 (11715501_s_at) / Fold change /veh IGFBP7 (11715501_s_at) / RFU REEP3 (11722064_at) / Fold change /veh REEP3 (11722064_at) / RFU IGLL1 (11728026_x_at) / Fold change /veh IGLL1 (11728026_x_at): dose or concentration left out as unconfirmed
Settings: MV-4-11 cells, 48 hours

With `Nc1ncn([C@@H]2O[C@H](CO)[C@@H](O)[C@H]2O)c(=O)n1` [azacitidine] the “RFU NKD1 (11759106_at)” value was 23.64 RFU.
